16 compounds from US20260035365A1, “1H-PYRROLO[3,2-B]PYRIDINE DERIVATIVES AS IRREVERSIBLE INHIBITORS OF MUTANT EGFR FOR THE TREATMENT OF CANCER” (Bayer Aktiengesellschaft, priority 2022, published 2026) can be followed below.

As usually defined, the IC50 is the concentration needed to halve the response being measured. Low readings indicate higher potency, high ones lower potency.

Assay [1] addresses mutEGFR (D770_N771insNPG, T790). The experiment in a line: mutEGFR (D770_N771insNPG, T790) kinase assay. The assay is classed as biochemical, human.
Assay [2] addresses mutEGFR (D770_N771insSVD) (Homo sapiens, UniProt P00533, INS767SVD). The experiment in a line: Exon20-mutant-EGFR (D770_N771insSVD) TR-FRET kinase assay. The format is biochemical. The following applies: 2 mM ATP, 15 min preincubation. The source says: Inhibitory activity of compounds of the present invention against an Epidermal Growth Factor Receptor (EGFR) with an insertion of the amino acids sequence SVD between D770 and N771 (SEQ ID No. 5) was quantified employing the TR-FRET based kinase activity assay as described in the following paragraphs.
A recombinant fusion protein of N-terminal Glutathion-S-Transferase (GST) and a fragment of human EGFR variant (amino acids R669 to A1210 with insertion of the amino acids sequence SVD between D770 and N771 (SEQ ID No. 5) (“EGFR ins SVD”), expressed in Sf9 insect cells and purified via affinity chromatography using Glutathion Sepharose as described above, was used as a kinase. As substrate for the kinase reaction the biotinylated peptide biotin-Ahx-AEEEEYFELVAKKK (C-terminus in amide form) (SEQ ID No. 6) was used which can be purchased e.g. form the company Biosynthan GmbH (Berlin-Buch, Germany).
For the assay 50 nl of a 100-fold concentrated solution of the test compound in DMSO was pipetted into either a black low volume 384 well microtiter plate or a black 1536 well microtiter plate (both Greiner Bio-One, Frickenhausen, Germany), 2 μl of a solution of EGFR in aqueous assay buffer [50 mM Hepes pH 7.0, 10 mM MgCl2, 1 mM dithiothreitol, 0.5 mM EGTA, 0.3 mM activated sodium ortho-vanadate, 0.005% (w/v) bovine serum albumin, 0.005% (v/v) Tween-20] were added and the mixture was incubated for 15 min at 22° C. to allow pre binding of the test compounds to the enzyme before the start of the kinase reaction. […] The concentration of EGFR was adjusted depending of the activity of the enzyme lot and was chosen appropriate to have the assay in the linear range, typical concentration was 15 pg/μl. The reaction was stopped by the addition of 3 μl of a solution of HTRF detection reagents (83.3 nM streptavidine-XL665 [Cisbio Bioassays, Codolet, France] and 1.67 nM PT66-Tb-Cryptate, a terbium-cryptate labelled anti-phospho-tyrosine antibody from Cisbio Bioassays [instead of the PT66 Tb cryptate PT66 Eu Chelate from Perkin Elmer can also be used]) in an aqueous EDTA-solution (133.3 mM EDTA, 0.2% (w/v) bovine serum albumin in 50 mM HEPES pH 7.5).
The resulting mixture was incubated 1 h at 22° C. to allow the binding of the biotinylated phosphorylated peptide to the streptavidine-XL665 and the PT66-Tb-Cryptate. Subsequently, the amount of phosphorylated substrate was evaluated by measurement of the resonance energy transfer from the PT66-Tb-Cryptate to the streptavidine-XL665. Therefore, the fluorescence emissions at 620 nm and 665 nm after excitation at 337 nm were measured in a HTRF reader, e.g. a Pherastar (BMG Labtechnologies, Offenburg, Germany) or a Viewlux (Perkin-Elmer). The ratio of the emissions at 665 nm and at […] was taken as the measure for the amount of phosphorylated substrate. The data were normalised (enzyme reaction without inhibitor=0% inhibition, all other assay components but no enzyme=100% inhibition).
A general note: In TR-FRET formats the signal depends on donor and acceptor labels being close together.

Another assay has as its system BA/F3 (insSVD) cells. Briefly: Ba/F3 cell survival assay (Cell Titer-Glo), EGFR-insSVD. The assay is classed as cell-based. The following applies: without IL-3, with EGF. The procedure:
293T cells from ATCC were transfected with pBABEpuro expression constructs for WT EGFR or EGFR-insSVD, or EGFR-insSVD T790M, and pCL-Eco packaging vector using Fugene-6 transfection reagent from Promega. Plates were incubated at 37° C. for 48 h. Retrovirus was harvested by filtering the media supernatant through a 0.45 μm filter.
Ba/F3 cells purchased from DSMZ were grown in RPMI+10% FBS+10 ng/mL IL-3 and infected with filtered retroviral supernatant at a 1:2 dilution. Polybrene was added to a concentration of 8 μg/mL, plates were spun for 90 min, and incubated for 16 h at 37° C. 2 μg/mL puromycin was added to the infected cells 24 h after infection and cells were continually grown in the presence of puromycin and 10 ng/mL IL-3. Following stably expressing Ba/F3 cell lines were generated: Ba/F3-EGFR-WT, Ba/F3-EGFR-insSVD, Ba/F3-EGFR-insSVD T790M, (Ba/F3-vector-control).
For cell survival assays, Ba/F3 cells were grown to a density of 1-2 million cells per mL, spun down and resuspended in media without IL-3, and replated at a concentration of 200,000-500,000 cells per mL. The cells ectopically expressing WT EGFR, EGFR-insSVD, or EGFR-insSVD T790M were plated with 10 ng/mL Millipore Culture grade EGF. The cells ectopically expressing pBABEpuro empty vector were plated with 10 ng/mL IL-3.
2 days later, cells were plated in 50 μL in a 384 well plate at a concentration of 4000 cells per well for cells assayed in the absence of IL-3 and 2000 cells per well for cells assayed in the presence of IL-3. 100 nL of compound was added to each well using a 100 nL pin head, and plates were incubated at 37° C. for 48 h.
Cell viability was measured by adding 20 μL of Cell Titer-Glo Luminescent Cell Viability Reagent diluted 1:3 in PBS. Plates were sealed with Perkin Elmer Top-Seal, inverted several times to mix, and immediately centrifuged at 1000 rpm for 2 min. Plates were incubated in low light conditions for 8-10 min and luminescence was measured.
Background: ATP-based viability assays read luminescence as a measure of living cells.

Sequence of mutEGFR (D770_N771insSVD) (P00533 with tags, fused parts or gaps INS767SVD limits assumed): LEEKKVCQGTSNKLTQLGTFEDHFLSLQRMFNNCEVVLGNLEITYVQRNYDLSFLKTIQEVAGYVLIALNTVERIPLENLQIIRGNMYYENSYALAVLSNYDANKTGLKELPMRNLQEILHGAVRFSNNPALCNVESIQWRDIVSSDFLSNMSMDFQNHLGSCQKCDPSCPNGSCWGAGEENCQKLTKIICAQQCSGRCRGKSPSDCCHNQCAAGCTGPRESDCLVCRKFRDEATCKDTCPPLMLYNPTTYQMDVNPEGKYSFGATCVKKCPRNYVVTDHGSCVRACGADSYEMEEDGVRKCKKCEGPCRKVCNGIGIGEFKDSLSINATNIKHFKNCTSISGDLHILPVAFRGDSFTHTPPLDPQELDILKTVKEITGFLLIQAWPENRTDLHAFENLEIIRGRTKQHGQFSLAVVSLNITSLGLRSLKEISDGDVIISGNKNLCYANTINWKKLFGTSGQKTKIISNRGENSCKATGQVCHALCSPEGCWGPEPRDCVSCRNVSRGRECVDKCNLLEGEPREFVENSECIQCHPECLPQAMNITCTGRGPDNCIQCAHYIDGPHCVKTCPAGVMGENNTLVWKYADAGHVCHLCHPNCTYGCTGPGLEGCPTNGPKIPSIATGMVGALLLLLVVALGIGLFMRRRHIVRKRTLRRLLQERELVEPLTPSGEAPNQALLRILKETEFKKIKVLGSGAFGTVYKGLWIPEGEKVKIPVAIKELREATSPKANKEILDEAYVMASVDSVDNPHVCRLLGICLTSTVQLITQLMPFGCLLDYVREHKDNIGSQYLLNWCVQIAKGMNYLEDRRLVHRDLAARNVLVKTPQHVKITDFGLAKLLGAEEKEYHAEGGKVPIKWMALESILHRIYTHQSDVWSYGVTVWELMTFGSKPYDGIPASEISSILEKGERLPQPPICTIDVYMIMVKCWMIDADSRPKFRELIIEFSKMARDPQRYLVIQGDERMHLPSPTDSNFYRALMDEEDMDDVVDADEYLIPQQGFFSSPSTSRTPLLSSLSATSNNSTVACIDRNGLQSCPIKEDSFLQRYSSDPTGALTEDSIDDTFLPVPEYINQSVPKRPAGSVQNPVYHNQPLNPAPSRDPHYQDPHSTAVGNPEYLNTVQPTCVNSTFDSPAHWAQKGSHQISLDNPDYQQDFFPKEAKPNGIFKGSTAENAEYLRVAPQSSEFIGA
Sequence of mutEGFR (D770_N771insNPG, T790) (P00533 with tags, fused parts or gaps INS770NPG limits assumed): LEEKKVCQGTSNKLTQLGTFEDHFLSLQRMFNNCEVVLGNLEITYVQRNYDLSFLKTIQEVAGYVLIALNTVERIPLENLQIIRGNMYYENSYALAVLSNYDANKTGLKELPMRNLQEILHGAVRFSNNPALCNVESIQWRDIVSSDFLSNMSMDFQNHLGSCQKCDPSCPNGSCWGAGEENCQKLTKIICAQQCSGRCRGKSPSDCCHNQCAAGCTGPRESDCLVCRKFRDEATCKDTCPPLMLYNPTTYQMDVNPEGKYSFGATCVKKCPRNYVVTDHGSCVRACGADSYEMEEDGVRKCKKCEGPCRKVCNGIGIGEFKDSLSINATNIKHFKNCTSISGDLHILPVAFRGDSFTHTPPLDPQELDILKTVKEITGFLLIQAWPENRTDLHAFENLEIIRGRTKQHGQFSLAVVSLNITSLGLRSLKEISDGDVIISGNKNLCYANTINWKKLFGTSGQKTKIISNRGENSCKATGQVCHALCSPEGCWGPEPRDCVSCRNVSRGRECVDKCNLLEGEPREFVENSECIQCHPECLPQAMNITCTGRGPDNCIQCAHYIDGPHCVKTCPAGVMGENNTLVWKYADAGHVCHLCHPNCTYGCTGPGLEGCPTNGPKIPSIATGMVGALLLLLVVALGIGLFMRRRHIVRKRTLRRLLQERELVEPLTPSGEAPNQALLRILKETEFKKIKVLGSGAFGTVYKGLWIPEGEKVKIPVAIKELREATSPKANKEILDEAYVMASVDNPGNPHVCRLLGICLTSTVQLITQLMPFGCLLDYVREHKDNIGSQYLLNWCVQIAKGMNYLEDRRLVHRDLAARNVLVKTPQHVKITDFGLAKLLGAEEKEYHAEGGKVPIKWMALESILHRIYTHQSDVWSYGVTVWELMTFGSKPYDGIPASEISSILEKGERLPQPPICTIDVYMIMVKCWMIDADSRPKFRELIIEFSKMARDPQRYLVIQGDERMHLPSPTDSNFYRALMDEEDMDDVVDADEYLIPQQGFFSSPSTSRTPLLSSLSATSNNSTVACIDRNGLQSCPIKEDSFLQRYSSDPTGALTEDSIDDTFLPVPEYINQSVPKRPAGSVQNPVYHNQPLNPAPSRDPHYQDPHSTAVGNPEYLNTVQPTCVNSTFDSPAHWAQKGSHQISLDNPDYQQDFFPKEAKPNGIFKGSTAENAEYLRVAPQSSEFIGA

With `C=CC(=O)N1CCC(Oc2cnccc2-c2[nH]c3cccnc3c2-c2ccccc2)C1` (racemic) [Example 116, 1-[(3RS)-3-{[4-(3-phenyl-1H-pyrrolo[3,2-b]pyridin-2-yl)pyridin-3-yl]oxy}pyrrolidin-1-yl]prop-2-en-1-one], the IC50 in assay [1] worked out at 0.215 µM; in assay [2], 0.0524 µM; in the assay with BA/F3 (insSVD) cells (Mus musculus, BaF3, 48 h), 1.52 µM.

In the case of `C#CC(=O)N1CCC(Oc2cnccc2-c2[nH]c3cccnc3c2-c2ccccc2)C1` (racemic) [Example 117, 1-[(3RS)-3-{[4-(3-phenyl-1H-pyrrolo[3,2-b]pyridin-2-yl)pyridin-3-yl]oxy}pyrrolidin-1-yl]prop-2-yn-1-one], the IC50 was found to be 0.296 µM in assay [1]; 0.0902 µM in assay [2]; 4.43 µM in the assay on BA/F3 (insSVD) cells (Mus musculus, BaF3, 48 h).

As to `C=CS(=O)(=O)N1CCC(Oc2cnccc2-c2[nH]c3cccnc3c2-c2ccccc2)C1` (racemic) [Example 118, 2-(3-{[(3RS)-1-(ethenesulfonyl)pyrrolidin-3-yl]oxy}pyridin-4-yl)-3-phenyl-1H-pyrrolo[3,2-b]pyridine], the IC50 in assay [1] worked out at 0.0799 µM; in assay [2], 0.0168 µM; in the assay on BA/F3 (insSVD) cells (Mus musculus, BaF3, 48 h), 0.723 µM.

Take `C=CC(=O)N1CCC(Oc2cnccc2-c2[nH]c3cccnc3c2-c2cccc(Cl)c2)C1` (racemic) [Example 119, 1-[(3RS)-3-({4-[3-(3-chlorophenyl)-1H-pyrrolo[3,2-b]pyridin-2-yl]pyridin-3-yl}oxy)pyrrolidin-1-yl]prop-2-en-1-one]: the half-maximal inhibitory concentration (IC50) came to 0.058 µM in assay [1]; 0.014 µM in assay [2]; 0.549 µM with BA/F3 (insSVD) cells (Mus musculus, BaF3, 48 h).

Regarding `C#CC(=O)N1CCC(Oc2cnccc2-c2[nH]c3cccnc3c2-c2cccc(Cl)c2)C1` (racemic) [Example 120, 1-[(3RS)-3-({4-[3-(3-chlorophenyl)-1H-pyrrolo[3,2-b]pyridin-2-yl]pyridin-3-yl}oxy)pyrrolidin-1-yl]prop-2-yn-1-one], the IC50 in assay [1] came to 0.0987 µM; in assay [2] it was 0.0385 µM; in the assay with BA/F3 (insSVD) cells (Mus musculus, BaF3, 48 h), 1.19 µM.

Take `C=CS(=O)(=O)N1CCC(Oc2cnccc2-c2[nH]c3cccnc3c2-c2cccc(Cl)c2)C1` (racemic) [Example 121, 3-(3-chlorophenyl)-2-(3-{[(3RS)-1-(ethenesulfonyl)pyrrolidin-3-yl]oxy}pyridin-4-yl)-1H-pyrrolo[3,2-b]pyridine]: the IC50 in assay [1] came to 0.018 µM; in assay [2], 0.00691 µM; in the assay with BA/F3 (insSVD) cells (Mus musculus, BaF3, 48 h) it was 0.497 µM.

As for `C=CC(=O)N1CCC(Oc2cnccc2-c2[nH]c3cccnc3c2-c2cccc(C(F)(F)F)c2)C1` (racemic) [Example 122, 1-{(3RS)-3-[(4-{3-[3-(trifluoromethyl)phenyl]-1H-pyrrolo[3,2-b]pyridin-2-yl}pyridin-3-yl)oxy]pyrrolidin-1-yl}prop-2-en-1-one], the 50% inhibitory concentration (IC50) in assay [1] stood at 0.775 µM; in assay [2], 0.123 µM; in the assay on BA/F3 (insSVD) cells (Mus musculus, BaF3, 48 h) it was 2.59 µM.

As for `C#CC(=O)N1CCC(Oc2cnccc2-c2[nH]c3cccnc3c2-c2cccc(C(F)(F)F)c2)C1` (racemic) [Example 123, 1-{(3RS)-3-[(4-{3-[3-(trifluoromethyl)phenyl]-1H-pyrrolo[3,2-b]pyridin-2-yl}pyridin-3-yl)oxy]pyrrolidin-1-yl}prop-2-yn-1-one], the IC50 in assay [1] stood at 0.701 µM; in assay [2], 0.173 µM; in the assay on BA/F3 (insSVD) cells (Mus musculus, BaF3, 48 h) it was 0.832 µM.

For `C=CC(=O)N1CCC(Oc2cnccc2-c2[nH]c3cccnc3c2-c2cc(C)ccc2F)C1` (racemic) [Example 124, 1-[(3RS)-3-({4-[3-(2-fluoro-5-methylphenyl)-1H-pyrrolo[3,2-b]pyridin-2-yl]pyridin-3-yl}oxy)pyrrolidin-1-yl]prop-2-en-1-one], the IC50 in assay [1] worked out at 0.121 µM; in assay [2], 0.0262 µM; in the assay on BA/F3 (insSVD) cells (Mus musculus, BaF3, 48 h) it was 0.904 µM.

`C#CC(=O)N1CCC(Oc2cnccc2-c2[nH]c3cccnc3c2-c2cc(C)ccc2F)C1` (racemic) [Example 125, 1-[(3RS)-3-({4-[3-(2-fluoro-5-methylphenyl)-1H-pyrrolo[3,2-b]pyridin-2-yl]pyridin-3-yl}oxy)pyrrolidin-1-yl]prop-2-yn-1-one]: the IC50 in assay [1] stood at 0.219 µM; in assay [2] it was 0.0808 µM; in the assay on BA/F3 (insSVD) cells (Mus musculus, BaF3, 48 h) it was 1.03 µM.

As to `C=CS(=O)(=O)N1CCC(Oc2cnccc2-c2[nH]c3cccnc3c2-c2cc(C)ccc2F)C1` (racemic) [Example 126, 2-(3-{[(3RS)-1-(ethenesulfonyl)pyrrolidin-3-yl]oxy}pyridin-4-yl)-3-(2-fluoro-5-methylphenyl)-1H-pyrrolo[3,2-b]pyridine], the IC50 came to 0.0398 µM in assay [1]; 0.0138 µM in assay [2]; 0.807 µM with BA/F3 (insSVD) cells (Mus musculus, BaF3, 48 h).

As for `C=CC(=O)N1CCC(Oc2cnccc2-c2[nH]c3cccnc3c2-c2cc(Cl)ccc2F)C1` (racemic) [Example 127, 1-[(3RS)-3-({4-[3-(5-chloro-2-fluorophenyl)-1H-pyrrolo[3,2-b]pyridin-2-yl]pyridin-3-yl}oxy)pyrrolidin-1-yl]prop-2-en-1-one], the IC50 in assay [1] came to 0.0976 µM; in assay [2], 0.0254 µM; with BA/F3 (insSVD) cells (Mus musculus, BaF3, 48 h) it was 0.691 µM.

Turning to `C=CC(=O)N1CCC1(C)COc1cnccc1-c1[nH]c2cccnc2c1-c1ccccc1` (racemic) [Example 145, 1-[(2RS)-2-methyl-2-({[4-(3-phenyl-1H-pyrrolo[3,2-b]pyridin-2-yl)pyridin-3-yl]oxy}methyl)azetidin-1-yl]prop-2-en-1-one], the IC50 amounted to 17.4 µM in assay [1]; 3.51 µM in assay [2]; 9.98 µM with BA/F3 (insSVD) cells (Mus musculus, BaF3, 48 h).

Take `C=CS(=O)(=O)N1CCC1(C)COc1cnccc1-c1[nH]c2cccnc2c1-c1cccc(C(F)(F)F)c1` (racemic) [Example 148, 2-(3-{[(2RS)-1-(ethenesulfonyl)-2-methylazetidin-2-yl]methoxy}pyridin-4-yl)-3-[3-(trifluoromethyl)phenyl]-1H-pyrrolo[3,2-b]pyridine]: the IC50 turned out to be 0.627 µM in assay [1]; 0.105 µM in assay [2]; 2.78 µM in the assay on BA/F3 (insSVD) cells (Mus musculus, BaF3, 48 h).

For `C=CC(=O)N1C[C@@H](N(C)CCN(C)C)C[C@H]1COc1cnccc1-c1[nH]c2cccnc2c1-c1ccccc1` (single isomer, unassigned) [Example 131], the results for the IC50 (in assay [1]; in assay [2]; in the assay with BA/F3 (insSVD) cells (48 h)) were 0.00358 µM, 0.00117 µM and 0.0546 µM, respectively.

`C=CC(=O)N1CCCC[C@H]1COc1cnccc1-c1[nH]c2cccnc2c1-c1ccccc1` [Example 130, 1-[(2S)-2-({[4-(3-phenyl-1H-pyrrolo[3,2-b]pyridin-2-yl)pyridin-3-yl]oxy}methyl)piperidin-1-yl]prop-2-en-1-one]: the IC50 in assay [2] was found to be 0.337 µM; with BA/F3 (insSVD) cells (Mus musculus, BaF3, 48 h) it was 1.62 µM.
